Source: ChEMBL document CHEMBL1909046, “DrugMatrix in vitro pharmacology data”

Tests used:
[1] = biological target: Platelet-activating factor receptor (Homo sapiens, UniProt P25105); assay type: tissue-based; note: in other assays of this panel Not Active means under 50% inhibition at 10 µM
Estrogen receptor beta = Estrogen receptor beta (Homo sapiens, UniProt Q92731); details: sf9; note: in other assays of this panel Not Active means under 50% inhibition at 10 µM
[2] = biological target: T1, Cholecystokinin receptor type A (Homo sapiens, UniProt P32238); assay type: cell membranes, Membrane; details: 1321-n1; note: in other assays of this panel Not Active means under 50% inhibition at 10 µM
T1 sequence (P32238 whole entry): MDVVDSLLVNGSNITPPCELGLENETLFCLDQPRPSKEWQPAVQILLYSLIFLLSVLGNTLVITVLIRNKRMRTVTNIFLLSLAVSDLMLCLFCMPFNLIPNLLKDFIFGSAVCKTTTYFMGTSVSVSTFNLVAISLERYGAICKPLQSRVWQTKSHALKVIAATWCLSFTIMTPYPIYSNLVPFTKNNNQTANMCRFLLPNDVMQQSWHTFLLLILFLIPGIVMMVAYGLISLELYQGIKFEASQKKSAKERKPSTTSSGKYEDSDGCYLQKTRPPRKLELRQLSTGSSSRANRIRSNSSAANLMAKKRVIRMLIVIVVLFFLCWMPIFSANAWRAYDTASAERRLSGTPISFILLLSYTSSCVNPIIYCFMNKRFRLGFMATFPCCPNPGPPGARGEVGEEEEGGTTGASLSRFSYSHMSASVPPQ

[3] = DRUGMATRIX: GABAA, Flunitrazepam, Central radioligand binding (ligand: [3H] Flunitrazepam); assay type: cell membranes, Rattus norvegicus, Wistar, Brain, Membrane; details: Not Active = under 50% inhibition at 10 µM
[4] = biological target: T2, Nitric oxide synthase, inducible (Mus musculus, UniProt P29477); set-up: species or system Escherichia coli;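 note: inhibition of iNOS enzyme activity measured with L-arginine as substrate; in other assays of this panel Not Active means under 50% inhibition at 10 µM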
T2 sequence (P29477 whole entry): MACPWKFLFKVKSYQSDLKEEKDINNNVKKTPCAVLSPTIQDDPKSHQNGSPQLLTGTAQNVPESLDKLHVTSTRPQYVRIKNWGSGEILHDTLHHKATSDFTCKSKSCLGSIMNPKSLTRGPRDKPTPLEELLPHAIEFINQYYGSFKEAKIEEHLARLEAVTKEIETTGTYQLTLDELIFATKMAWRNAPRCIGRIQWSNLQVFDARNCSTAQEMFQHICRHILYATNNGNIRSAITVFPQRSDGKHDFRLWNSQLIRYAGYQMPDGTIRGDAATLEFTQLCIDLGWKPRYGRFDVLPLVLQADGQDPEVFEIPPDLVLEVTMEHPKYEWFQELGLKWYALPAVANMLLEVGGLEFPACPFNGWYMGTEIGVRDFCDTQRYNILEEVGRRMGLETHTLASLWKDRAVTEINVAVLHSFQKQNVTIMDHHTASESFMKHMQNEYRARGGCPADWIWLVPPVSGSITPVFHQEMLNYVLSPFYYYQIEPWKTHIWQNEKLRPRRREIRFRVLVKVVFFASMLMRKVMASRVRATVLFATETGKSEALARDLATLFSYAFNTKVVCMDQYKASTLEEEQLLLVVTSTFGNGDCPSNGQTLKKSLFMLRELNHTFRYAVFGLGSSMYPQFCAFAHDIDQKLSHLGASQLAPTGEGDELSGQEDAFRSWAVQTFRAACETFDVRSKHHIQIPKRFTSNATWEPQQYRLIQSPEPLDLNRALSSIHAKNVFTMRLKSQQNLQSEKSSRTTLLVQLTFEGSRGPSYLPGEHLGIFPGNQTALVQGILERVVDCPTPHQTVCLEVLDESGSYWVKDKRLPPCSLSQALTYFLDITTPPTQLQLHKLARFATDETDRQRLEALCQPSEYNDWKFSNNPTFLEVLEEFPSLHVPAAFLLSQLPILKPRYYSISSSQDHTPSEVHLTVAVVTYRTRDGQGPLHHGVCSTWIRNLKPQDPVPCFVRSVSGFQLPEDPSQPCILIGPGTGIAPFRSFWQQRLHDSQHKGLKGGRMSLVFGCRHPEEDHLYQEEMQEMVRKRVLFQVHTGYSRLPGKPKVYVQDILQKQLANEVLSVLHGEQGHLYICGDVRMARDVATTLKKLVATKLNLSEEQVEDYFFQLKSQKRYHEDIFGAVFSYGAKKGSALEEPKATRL

[5] = biological target: Receptor tyrosine-protein kinase erbB-2 (Homo sapiens, UniProt P04626); assay: biochemical; assay type: cell-based, Insect cells; details: insect cells
[6] = biological target: Epidermal growth factor receptor (Homo sapiens, UniProt P00533); assay: DRUGMATRIX: Protein Tyrosine Kinase, EGF Receptor enzyme inhibition (substrate: Poly(Glu:Tyr)); assay type: cell-based, Insect cells; details: insect cells; Not Active = under 50% inhibition at 10 µM

Sequence of Platelet-activating factor receptor (P25105 whole entry): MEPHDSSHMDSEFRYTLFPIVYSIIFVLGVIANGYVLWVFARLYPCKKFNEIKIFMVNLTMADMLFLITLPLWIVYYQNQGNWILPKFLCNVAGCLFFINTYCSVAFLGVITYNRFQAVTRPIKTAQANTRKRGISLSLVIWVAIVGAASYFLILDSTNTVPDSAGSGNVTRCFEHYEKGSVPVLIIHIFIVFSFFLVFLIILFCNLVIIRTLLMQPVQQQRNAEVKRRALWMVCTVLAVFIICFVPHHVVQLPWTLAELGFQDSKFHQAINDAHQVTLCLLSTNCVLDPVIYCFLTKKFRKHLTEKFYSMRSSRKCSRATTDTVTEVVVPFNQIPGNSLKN
Sequence of Estrogen receptor beta (Q92731 whole entry): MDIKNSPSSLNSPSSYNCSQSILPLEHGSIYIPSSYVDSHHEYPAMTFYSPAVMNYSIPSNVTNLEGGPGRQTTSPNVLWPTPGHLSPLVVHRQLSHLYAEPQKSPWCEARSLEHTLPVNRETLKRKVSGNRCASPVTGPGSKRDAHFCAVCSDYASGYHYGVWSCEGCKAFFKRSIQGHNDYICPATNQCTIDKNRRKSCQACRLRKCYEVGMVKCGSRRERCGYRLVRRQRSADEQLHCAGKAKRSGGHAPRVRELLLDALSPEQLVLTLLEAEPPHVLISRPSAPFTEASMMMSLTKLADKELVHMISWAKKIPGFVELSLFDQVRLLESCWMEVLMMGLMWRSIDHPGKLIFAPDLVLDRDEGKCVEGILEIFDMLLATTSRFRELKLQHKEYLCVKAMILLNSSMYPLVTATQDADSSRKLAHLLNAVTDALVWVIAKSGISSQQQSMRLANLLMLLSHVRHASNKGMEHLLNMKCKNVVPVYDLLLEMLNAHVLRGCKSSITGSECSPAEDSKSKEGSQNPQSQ

NC(=O)N1c2ccccc2CC(=O)c2ccccc21 [OXCARBAZEPINE]
Not Active: IC50 [1] | IC50 (Estrogen receptor beta) | IC50 [2] | IC50 [3] | Ki [3] | IC50 [4] | IC50 [5] | IC50 [6]

COc1ccnc(C[S+]([O-])c2nc3ccc(OC(F)F)cc3[nH]2)c1OC (configuration not stated) [PANTOPRAZOLE]
Not Active: IC50 [1] | IC50 (Estrogen receptor beta) | IC50 [2] | IC50 [3] | Ki [3] | IC50 [4] | IC50 [5] | IC50 [6]

CCc1ccc(CCOc2ccc(CC3SC(=O)NC3=O)cc2)nc1 (configuration not stated) [PIOGLITAZONE]
Not Active: IC50 [1] | IC50 (Estrogen receptor beta) | IC50 [2] | IC50 [3] | Ki [3] | IC50 [4] | IC50 [5] | IC50 [6]

CCN(CC)CCNC(=O)c1ccc(N)cc1 [PROCAINAMIDE]
Not Active: IC50 [1] | IC50 (Estrogen receptor beta) | IC50 [2] | IC50 [3] | Ki [3] | IC50 [4] | IC50 [5] | IC50 [6]

CCN(CC)CCCC(C)Nc1c2ccc(Cl)cc2nc2ccc(OC)cc12 (configuration not stated) [QUINACRINE]
Not Active: IC50 [1] | IC50 (Estrogen receptor beta) | IC50 [2] | IC50 [3] | Ki [3] | IC50 [4] | IC50 [5] | IC50 [6]

CC[C@]1(O)C[C@@H]2CN(CCc3c([nH]c4ccccc34)[C@@](C(=O)OC)(c3cc4c(cc3OC)N(C)[C@H]3[C@@](O)(C(N)=O)[C@H](O)[C@]5(CC)C=CCN6CC[C@]43[C@@H]65)C2)C1 [VINDESINE]
Not Active: IC50 [1] | IC50 (Estrogen receptor beta) | IC50 [2] | IC50 [3] | Ki [3] | IC50 [4] | IC50 [5] | IC50 [6]

COBALTOUS CHLORIDE
Not Active: IC50 [1] | Ki [1] | IC50 (Estrogen receptor beta) | Ki (Estrogen receptor beta) | IC50 [2] | Ki [2] | IC50 [3] | Ki [3] | IC50 [4] | Ki [4] | IC50 [5] | Ki [5] | IC50 [6] | Ki [6]
